# Laboratory results: patent publication US6545011B2, “Substituted 4,9-dihydrocyclopenta[imn]phenanthridine-5-ones, derivatives thereof and their uses” (Guilford Pharmaceuticals Inc., priority 2000, dated 2003)
# Several values for one entry are separate records, joined by “and”; a condition that tells them apart may be missing. Identical values can stand only once.
# What was measured:
# [1] = biological target: T1, purified recombinant human PARP (Homo sapiens, UniProt P09874); experiment: PARP enzyme assay (IC50), [3H]NAD incorporation; format: biochemical; conditions: approximate values, read-out: Inhibition IC50
# T1 construct: purchased Trevigan (Gaithersburg, Md.)
# T1 sequence (P09874 whole entry): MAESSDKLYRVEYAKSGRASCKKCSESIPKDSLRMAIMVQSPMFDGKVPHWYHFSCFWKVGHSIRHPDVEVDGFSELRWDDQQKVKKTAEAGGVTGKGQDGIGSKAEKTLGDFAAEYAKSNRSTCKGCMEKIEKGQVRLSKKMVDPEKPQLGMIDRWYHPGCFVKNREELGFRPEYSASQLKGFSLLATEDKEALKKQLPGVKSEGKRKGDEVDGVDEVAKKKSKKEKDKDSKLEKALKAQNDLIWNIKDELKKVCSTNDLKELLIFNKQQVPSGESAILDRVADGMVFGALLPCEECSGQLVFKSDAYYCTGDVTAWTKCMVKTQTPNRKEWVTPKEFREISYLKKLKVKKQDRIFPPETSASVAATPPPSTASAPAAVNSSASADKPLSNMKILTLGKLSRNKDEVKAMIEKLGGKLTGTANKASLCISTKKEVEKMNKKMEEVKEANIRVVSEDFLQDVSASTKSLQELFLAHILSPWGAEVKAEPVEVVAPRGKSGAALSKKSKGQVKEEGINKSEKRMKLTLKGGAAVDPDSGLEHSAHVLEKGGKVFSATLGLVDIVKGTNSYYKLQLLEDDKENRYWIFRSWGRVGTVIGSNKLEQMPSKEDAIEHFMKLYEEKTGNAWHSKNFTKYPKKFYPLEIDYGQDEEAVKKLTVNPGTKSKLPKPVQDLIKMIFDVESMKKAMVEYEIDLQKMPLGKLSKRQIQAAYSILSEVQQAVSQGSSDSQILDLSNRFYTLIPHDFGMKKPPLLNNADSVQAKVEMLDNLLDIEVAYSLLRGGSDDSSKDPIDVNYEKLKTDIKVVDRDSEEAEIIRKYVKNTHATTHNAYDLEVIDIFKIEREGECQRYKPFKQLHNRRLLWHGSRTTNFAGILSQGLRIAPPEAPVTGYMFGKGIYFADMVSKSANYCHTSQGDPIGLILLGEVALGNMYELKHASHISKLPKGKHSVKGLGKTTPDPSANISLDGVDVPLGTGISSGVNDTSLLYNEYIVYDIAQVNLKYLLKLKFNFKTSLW
# Procedure: The reaction is initiated by incubating the mixture at 25° C. After 15 minutes of incubation, the reaction is terminated by adding 500 microliters of ice cold 20% (w/v) trichloroacetic acid. The precipitate formed is transferred onto a glass fiber filter (Packard Unifilter-GF/B) and washed three times with ethanol. After the filter is dried, the radioactivity is determined by scintillation counting.
# Using the PARP assay described above, approximate IC50 (μM) values were obtained as shown in the following Table III, which also include specific embodiments of the compounds of the present invention: […]
# [2] = test system: ischemia and reperfusion of the heart; conditions: rabbit, cited from earlier work
# [3] = test system: MSU crystal-induced neutrophil recruitment; experiment: Gout model: MSU crystal-induced neutrophil recruitment (peritonitis); format: in vivo, mouse
# Procedure: Male outbread Swiss albino mice (20-22 g body weight) were purchased from Banton and Kingsman (T.O. strain; Hull, Humberside) and maintained on a standard chow pellet diet with tap water ad libitum and a 12:00 h light/dark cycle. All animals were housed for 1 week prior to experimentation to allow body weight to reach 28-30 g.
# 1,11b-dihydrobenzopyrano[4,3,2-de ]isoquinolin-1-one was dissolved in 100% DMSO at room temperature at a concentration of 45 mg in 2 ml. The compound was then injected into the peritoneal cavity, so as each mouse received a single dose corresponding to 45 mg/2 ml/kg (e.g. 60 μl for a mouse of 30 g). Control mice received DMSO at 2 ml/kg i.p. A third group of mice which were left untreated were added to control for potential effects of the vehicle. The study involved therefore, the following three groups: group A, untreated mice, n=6, group B, DMSO-treated mice, n=8, and group C, mice treated with 1,11b-dihydrobenzopyrano[4,3,2-de ]isoquinolin-1-one, n=8.
# MSU crystal-induced neutrophil recruitment was tested as follows. In all cases, mice were treated 1 h after the treatment noted above, with MSU crystals. A homogenous suspension of MSU crystals was obtained by a 30 min rotation. Peritonitis was induced by injection of 3 mg MSU crystals in 0.5 ml PBS (0.1 M, pH 7.4), and the recruitment of neutrophils into the cavity evaluated at the 6 h time point (Getting, et al., 1997, J. Pharmacol. Exp. Ther. 283: 123-130). Animals were then euthanised by CO2 exposure and the peritoneal cavity washed with 3 ml of PBS supplemented with 3 mM EDTA and 25 U/ml heparin.
# An aliquot (100 μl) of the lavage fluid was then diluted 1:10 in Turk's solution (0.01% crystal violet in 3% acetic acid). The samples were then vortexed and 10 μl of the stained cell solution were placed in a Neubauer haematocymometer and neutrophils numbers counted using a light microscope (Olympus B061). […]
# Data are shown for single mice, and also shown as mean±S.E. of (n) mice per group. Statistical differences were determined by ANOVA, plus Bonferroni test. […]
# PARP = conditions: read-out: IC50 for inhibiting PARP; reported by Suto et al.; cited from earlier work
Compound,IC50 [1] [nM],further results
O=c1[nH]c2ccc(S(=O)(=O)N3CCN(c4ccccn4)CC3)c3c2c2c(cccc12)C3 [Compound 6],380,–
"CC(=O)OC1c2cc(F)cc3[nH]c(=O)c4cc(F)cc1c4c23 (centres unmarked) [Compound 21, 5,9-Dihydro-2,7-difluoro-5-oxo-4[H]cyclopenta[lmn]phenathridin-9-yl acetate]",360,–
O=c1[nH]c2cc(F)cc3c(=O)c4cc(F)cc1c4c23 [Compound 17],30,–
"Oc1cccc2c(O)nccc12 [1,5-dihydroxyisoquinoline]",–,reduction in infarct size ([2]; single injection 1 mg/kg): 38-48%
"O=c1[nH]c2ccc(S(=O)(=O)NCCN3CCCCC3)c3c2c2c(cccc12)C3 [Compound 11, 5,9-Dihydro-5-oxo-N-[2-(1-piperidinyl)ethyl]-4[H]cyclopenta[lmn]phenathridine-1-sulfonamide]",50,–
"O=C1N=Cc2cccc3c2C1c1ccccc1O3 (centres unmarked) [1,11b-dihydrobenzopyrano[4,3,2-de]isoquinolin-1-one]",–,"Neutrophils (mean ± S.E.) ([3]; 45 mg/kg i.p. 1 h prior to 3 mg MSU crystals, 6 h, group C, n=8, vehicle group B 6.30 ± 0.33): 2.85 ± 0.34 (8)* 10^6 per mouse; Neutrophil Numbers (single mice) ([3]; 45 mg/kg i.p. 1 h prior to 3 mg MSU crystals, peritoneal lavage at 6 h, group C, one value per mouse): 2.4 10^6 per mouse (2×) and 3.0 10^6 per mouse (2×) and 2.7 10^6 per mouse and 2.1 10^6 per mouse (2×) and 5.1 10^6 per mouse; inhibition of cell influx vs. the vehicle group ([3]; 45 mg/kg i.p., 6 h after MSU crystals): 55%"
"O=c1[nH]c2ccc(S(=O)(=O)NCCN3CCOCC3)c3c2c2c(cccc12)C3 [Compound 8, 5,9-Dihydro-N-[2-(4-morpholinyl)ethyl]-1-oxo-[H]cyclopenta[lmn]phenathridine-1-sulfonamide]",70,–
"O=c1[nH]c2cc(Cl)cc3[nH]c4cc(Cl)cc1c4c23 [Compound 22, 2,7,-Dichloro-5,9-dihydro-4[H]pyrrol[2,3,4,5-lmn]phenathridin-5-one]",20,–
"O=C1NCCc2c(OCCCCN3CCCCC3)cccc21 [DPQ, 3,4-dihydro-5-[4-(1-piperidinyl)-butoxy]-1(2H)-isoquinolinone]",–,IC50 (PARP): 40 nM
"Nc1ccc2[nH]c(=O)c3cccc4c3c2c1C4 [Compound 5, 5,9-dihydro-1-amino-4[H]cyclopenta[lmn]phenathridin-5-one]",60,–
"O=c1[nH]c2ccc(S(=O)(=O)O)c3c2c2c(cccc12)C3 [Compound 2, 5,9-Dihydro-5-oxo-4[H]cyclopenta[lmn]phenathridine-1-sulfonic acid]",110,–
CC(=O)OC1c2cccc3[nH]c(=O)c4cccc1c4c23 (centres unmarked) [Compound 20],810,–
"O=c1[nH]c2ccc(S(=O)(=O)N3CCOCC3)c3c2c2c(cccc12)C3 [Compound 12, 5,9-Dihydro-1-(4-morpholinylsulfonyl)-4[H]cyclopenta[lmn]phenathridin-5-one]",40,–
"O=c1[nH]c2cccc3c(=O)c4cccc1c4c23 [Compound 16, 9-oxo-5,9-dihydro-4[H]cyclopenta[lmn]phenathridin-5-one]",70,–
O=c1[nH]c2cc(F)cc3c2c2c(cc(F)cc12)C3O (centres unmarked) [Compound 19],100,–
"CC(=O)Nc1ccc2[nH]c(=O)c3cccc4c3c2c1C4 [Compound 13, 5,9-Dihydro-5-oxo-4[H]cyclopenta[mn]phenathridin-1-yl acetamide]",50,–
"O=C(Nc1ccc2[nH]c(=O)c3cccc4c3c2c1C4)c1cccc(F)c1 [Compound 14, N-(5,9-Dihydro-5-oxo-4[H]cyclopenta[lmn]phenathridin-1-yl)-3-fluorbenzamide]",80,–
"O=c1[nH]c2ccc([N+](=O)[O-])c3c2c2c(cccc12)C3 [Compound 4, 5,9-dihydro-1-nitro-4[H]cyclopenta[lmn]phenathridin-5-one]",111,–
O=c1[nH]c2ccc(S(=O)(=O)NCCc3ccncc3)c3c2c2c(cccc12)C3 [Compound 10],70,–
O=c1[nH]c2cccc3c2c2c(cccc12)C3O (centres unmarked) [Compound 18],120,–
NC(=O)c1cccc(N)c1 [3-amino-benzamide],–,"reduction in infarct size in the heart ([2]; single injection 10 mg/kg, one minute before occlusion or before reperfusion): 32-42%"
"N-(5,9-Dihydro-5-oxo-4[H]cyclopenta[lmn]phenathridin-1-yl)-4-fluorbenzamide [Compound 15]",70,–
"O=c1[nH]c2cccc3c2c2c(cccc12)C3 [Compound 1, 5,9-dihydro-4[H]cyclopenta[lmn]phenathridin-5-one]",100,–
"CN1CCN(S(=O)(=O)c2ccc3[nH]c(=O)c4cccc5c4c3c2C5)CC1 [Compound 9, 5,9-Dihydro-1-[(4-methyl-1-piperazinyl)sulfonyl]-4[H]cyclopenta[lmn]phenathridin-5-one]",130,–
